The results in this text go back to patent US9221766B2, “Compounds as diacylglycerol acyltransferase inhibitors” (GlaxoSmithKline LLC, priority 2012, dated 2015).

The target of the experiment is T1, Human DGAT1 (Homo sapiens, UniProt O75907).
T1 construct: made in house; host or cells: Sf9 insect cells (baculovirus); microsomes used as enzyme
T1 sequence (O75907 1-488): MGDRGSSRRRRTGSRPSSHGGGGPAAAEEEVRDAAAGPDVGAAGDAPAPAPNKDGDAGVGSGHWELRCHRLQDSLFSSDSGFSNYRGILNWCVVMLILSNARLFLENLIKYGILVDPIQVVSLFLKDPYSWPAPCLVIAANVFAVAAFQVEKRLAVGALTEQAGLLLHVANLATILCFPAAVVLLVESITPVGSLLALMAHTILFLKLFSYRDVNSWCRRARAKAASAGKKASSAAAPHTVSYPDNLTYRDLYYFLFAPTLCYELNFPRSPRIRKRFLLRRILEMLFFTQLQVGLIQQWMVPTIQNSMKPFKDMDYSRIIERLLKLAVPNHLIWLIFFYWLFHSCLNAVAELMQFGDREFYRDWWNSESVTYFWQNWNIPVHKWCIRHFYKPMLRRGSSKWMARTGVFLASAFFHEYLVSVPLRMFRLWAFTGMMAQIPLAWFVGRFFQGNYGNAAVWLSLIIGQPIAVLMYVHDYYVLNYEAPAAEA
The experiment can be described thus: human DGAT1 lipid extraction (LE) assay, inhibition of triacylglycerol product formation. Particulars: human DGAT1 microsomes from Sf9 cells, read-out: hDGAT LE IC50. The experiment is classed as biochemical. The method, then: Human DGAT1 was expressed in Sf9 insect cells using a baculovirus expression system. Microsomes were prepared and used as enzyme for in vitro inhibition testing in either of two formats measuring production of coenzyme A or tridecanoylglycerol product, respectively. All steps were performed at 21-23° C. All data for DGAT1 inhibition by test compounds were collected under conditions where product formation was linear with reaction time.
For inhibition of triacylglycerol product formation, 11 uL reactions were run in white Polyplate-384 (PerkinElmer6007300) starting with a 30 minute pre-reaction incubation of 5 uL of 2.2× enzyme and 1 uL of 100% DMSO containing test compound or control compound, {4-[4-(4-amino-7,7-dimethyl-7H-pyrimido[4,5-b][1,4]oxazin-6-yl)phenyl]cyclohexyl}acetic acid. Some assays were performed with inclusion of didecanoylglycerol in the pre-reaction incubation of test compounds and enzyme. Reactions were initiated after 30 minute pre-reaction incubation via addition of 5 uL of 2.2× substrate. Final reaction conditions consisted of 50 mM HEPES pH 7.5, 2 mM MgCl2, 1 mM CHAPS, 25 uM didecanoylglycerol, 0.5 uM decanoyl-CoA, 0.3 nCi/uL [^14C-]decanoyl-CoA or 0.5 nCi/uL [^3H]-decanoyl-CoA, 0.05-4 ug/mL microsomal protein, and 1% DMSO. Following 60 minute reaction incubation, reactions were stopped with 40 uL of 45% isopropanol and 50 mM sodium carbonate in water and mixed. Extraction of tridecanoylglycerol product was accomplished via addition of 30 uL Microscint-E (Perkin Elmer) and 2 hours of incubation (sealed). Plates were read on a Microbeta Microplate reader Inhibition was normalized to controls containing DMSO or 10 uM {4-[4-(4-amino-7,7-dimethyl-7H-pyrimido[4,5-b][1,4]oxazin-6-yl)phenyl]cyclohexyl}acetic acid. IC50s were fitted using GraphPad Prism to a sigmoidal dose response.
`CC1(CC(=O)O)CCc2cc(-c3ccc(Nc4ccc(C(F)(F)F)nc4)cn3)ccc2C1=O` (single isomer, unassigned) [Example 3, 2-(2-Methyl-1-oxo-6-(5-(6-(trifluoromethyl)pyridin-3-ylamino)pyridin-2-yl)-1,2,3,4-tetrahydronaphthalen-2-yl)acetic acid]: the IC50 is 500 to 10000 nM. Then `O=C(O)CC1(CC(F)(F)F)CCc2cc(-c3ccc(Nc4ccc(C(F)(F)F)nc4)cn3)ccc2C1=O` (single isomer, unassigned) [Example 1, 2-(1-Oxo-2-(2,2,2-trifluoroethyl)-6-(5-(6-(trifluoromethyl)pyridin-3-ylamino)pyridin-2-yl)-1,2,3,4-tetrahydronaphthalen-2-yl)acetic acid], with no more than 100 nM. For `O=C(O)CC1(CC(F)(F)F)CCc2cc(-c3cnc(Nc4ccc(Cl)cn4)cn3)ccc2C1=O` (single isomer, unassigned) [Example 18, 2-(6-(5-(5-chloropyridin-2-ylamino)pyrazin-2-yl)-1-oxo-2-(2,2,2-trifluoroethyl)-1,2,3,4-tetrahydronaphthalen-2-yl)acetic acid] the value was 100 to 500 nM; for `O=C(O)CC1(CC(F)(F)F)CCc2cc(-c3cnc(Nc4cccc(Cl)c4)s3)ccc2C1=O` (single isomer, unassigned) [Example 26, 2-(6-(2-(3-Chlorophenylamino)thiazol-5-yl)-1-oxo-2-(2,2,2-trifluoroethyl)-1,2,3,4-tetrahydronaphthalen-2-yl)acetic acid], 100 to 500 nM; for `O=C(O)CC1(CC(F)(F)F)CCc2cc(-c3ccc(Nc4ccc(Cl)cn4)cn3)ccc2C1=O` (single isomer, unassigned) [Example 8, 2-(6-(5-(5-chloropyridin-2-ylamino)pyridin-2-yl)-1-oxo-2-(2,2,2-trifluoroethyl)-1,2,3,4-tetrahydronaphthalen-2-yl)acetic acid], no more than 100 nM. For `O=C(O)CC1(CC(F)(F)F)CCc2cc(-c3cnc(Nc4ccc5c(c4)OCO5)cn3)ccc2C1=O` (single isomer, unassigned) [Example 19, 2-(6-(5-(benzo[d][1,3]dioxol-5-ylamino)pyrazin-2-yl)-1-oxo-2-(2,2,2-trifluoroethyl)-1,2,3,4-tetrahydronaphthalen-2-yl)acetic acid] the value was 100 to 500 nM; for `Cc1ccc(Nc2cnc(-c3ccc4c(c3)CCC(CC(=O)O)(CC(F)(F)F)C4=O)cn2)nc1` (single isomer, unassigned) [Example 16, 2-(6-(5-(5-methylpyridin-2-ylamino)pyrazin-2-yl)-1-oxo-2-(2,2,2-trifluoroethyl)-1,2,3,4-tetrahydronaphthalen-2-yl)acetic acid], 100 to 500 nM.
